The values below are quoted from earlier work in patent publication US9072916B2, “Aqueous anti-perspiration formulation” (BEIERSDORF AG, priority 2004, dated 2015).

For the series the following is noted: in water, alcohol, ether and 2-propanol.

Turning to `O=C(O)C(O)c1ccccc1` (stereo not shown) [Mandelic acid, mandelic acid], the solubility entry is on record as “readily soluble”.
